Assay [1] has as its target Glutamate receptor ionotropic, AMPA (Rattus norvegicus, UniProt P19490+P19491+P19492+P19493). The assay can be described thus: Tested for in vitro binding affinity against AMPA receptor using [3H]-AMPA binding assay. The assay is classed as protein-complex assay.
The target in another assay is Glutamate NMDA receptor. Nature of the assay: Inhibition of [3H]MDL-105,519 binding to NMDA receptor glycine-binding site. The assay is classed as protein-complex assay, Rattus norvegicus.
Assay [2] deals with Glutamate NMDA receptor (Rattus norvegicus) (UniProt P35439+Q00959+Q00960+Q00961+Q62645+Q8VHN2+Q9R1M7). Nature of the assay: Inhibition of [3H]MDL-105519 binding to NMDA receptor glycine binding site. It is filed as protein-complex assay. The conditions noted are these: concentration not given here. On the set-up: concentration or dose not given beside the values.
The target of assay [3] is T1, Glutamate receptor ionotropic, AMPA (Rattus norvegicus) (UniProt P19491+P19492+P19493+P19490). Nature of the assay: Tested for in vitro binding affinity against AMPA receptor using [3H]-AMPA binding assay at a concentration of 1 uM. The assay is classed as protein-complex assay.
The target in assay [4] is T1, Glutamate receptor ionotropic, AMPA (Rattus norvegicus). The assay can be described thus: Tested for in vitro binding affinity against AMPA receptor using [3H]AMPA binding assay. It is filed as protein-complex assay.

`O=C(O)Cc1csc(NCc2cc([N+](=O)[O-])cc3nc(O)c(O)nc23)n1`: the IC50 in assay [1] amounted to 180 nM; at Glutamate NMDA receptor it was 120 nM.
`O=[N+]([O-])c1cc(CNc2ccccn2)c2nc(O)c(O)nc2c1` came in with an IC50 in assay [1] of 500 nM. In assay [2], this compound displayed an inhibition of 0%.
For `COC(=O)c1ccccc1NCc1cc(Cl)cc2nc(O)c(O)nc12`, the values for the inhibition in assay [3] and in assay [2] were 0% and 25%, respectively.
Compound `COC(=O)C1CCCC(NCc2cc([N+](=O)[O-])cc3nc(O)c(O)nc23)C1` (stereo unspecified) registered an IC50 in assay [1] of 1300 nM. Moreover, the inhibition in assay [2] was 30%.
The compound `O=C(O)c1cccc(NCc2cc([N+](=O)[O-])cc3nc(O)c(O)nc23)c1` yielded an IC50 in assay [1] of 900 nM. In addition, in assay [2], the inhibition is 0%.
Regarding `O=[N+]([O-])c1cc(CNc2cccnc2)c2nc(O)c(O)nc2c1`, the IC50 in assay [1] amounted to 970 nM. The compound further came in with an inhibition in assay [2] of 12%.
Take `O=[N+]([O-])c1cc(CNc2ccccc2F)c2nc(O)c(O)nc2c1`: the IC50 in assay [1] is 1400 nM; at Glutamate NMDA receptor, 500 nM.
Consider `O=[N+]([O-])c1cc(CNc2ncccn2)c2nc(O)c(O)nc2c1`, for which, in assay [1], the IC50 is 380 nM. The compound also yielded an inhibition in assay [2] of 12%.
For `O=[N+]([O-])c1cc(CNc2ccc(F)cc2)c2nc(O)c(O)nc2c1`, the IC50 in assay [1] stood at 1200 nM; on Glutamate NMDA receptor, 750 nM.
`O=C(O)C1CCCC(NCc2cc([N+](=O)[O-])cc3nc(O)c(O)nc23)C1` (stereo unspecified) gave an IC50 in assay [1] of 780 nM. Also, in assay [2], the inhibition worked out at 21%.
On the same counts, the results for `O=[N+]([O-])c1cc(CNCc2ccncc2)c2nc(O)c(O)nc2c1` are 1400 nM and 36%.
As to `O=[N+]([O-])c1cc(CNc2ccccc2)c2nc(O)c(O)nc2c1`, the IC50 in assay [1] came to 1500 nM; on Glutamate NMDA receptor it was 1400 nM.
Regarding `O=[N+]([O-])c1cc(CNc2cccc(F)c2)c2nc(O)c(O)nc2c1`, the IC50 in assay [1] was found to be 1400 nM; at Glutamate NMDA receptor, 720 nM.
`O=C(O)c1ccccc1NCc1cc(Cl)cc2nc(O)c(O)nc12`: the results for the IC50 (in assay [1]; at Glutamate NMDA receptor) were 2000 nM and 30 nM, respectively.
As for `O=C(O)c1ccc(NCc2cc([N+](=O)[O-])cc3nc(O)c(O)nc23)cc1`, in assay [1], the IC50 is 1600 nM. Further, in assay [2], the inhibition is 10%.
In assay [1], `O=C(O)[C@@H]1CCCC[C@@H]1NCc1cc([N+](=O)[O-])cc2nc(O)c(O)nc12` registered an IC50 of 670 nM. For the same compound, in assay [2], the inhibition turned out to be 25%.
Compound `O=[N+]([O-])c1cc(CNCc2ccccn2)c2nc(O)c(O)nc2c1` returned an IC50 in assay [1] of 3100 nM. In addition, in assay [2], the inhibition was found to be 40%.
On the same counts, the results for `O=[N+]([O-])c1cc(CNc2nccs2)c2nc(O)c(O)nc2c1` are 190 nM and 41%.
Turning to `Oc1nc2cc(Br)cc(CNCc3ccccn3)c2nc1O`, in assay [1], the IC50 turned out to be 12000 nM. For the same compound, the inhibition in assay [2] worked out at 40%.
`O=[N+]([O-])c1cc(CN2CCC(O)C2)c2nc(O)c(O)nc2c1` (stereo unspecified): in assay [4], the Activity was determined as 330 nM.
Turning to `CCOC(=O)Cc1csc(NCc2cc(Br)cc3nc(O)c(O)nc23)n1`, in assay [3], the inhibition was 17%. In addition, at Glutamate NMDA receptor, the IC50 amounted to 340 nM.
Regarding `O=C(O)Cc1csc(NCc2cc(Br)cc3nc(O)c(O)nc23)n1`, the half-maximal inhibitory concentration (IC50) in assay [1] is 1450 nM; at Glutamate NMDA receptor, 120 nM.
On to `NC(=O)[C@@H]1CCCC[C@@H]1NCc1cc([N+](=O)[O-])cc2nc(O)c(O)nc12`, for which the half-maximal inhibitory concentration (IC50) in assay [1] worked out at 650 nM. The compound also displayed an inhibition in assay [2] of 25%.
Turning to `CCOC(=O)Cc1csc(NCc2cc([N+](=O)[O-])cc3nc(O)c(O)nc23)n1`, the IC50 in assay [1] stood at 1800 nM; on Glutamate NMDA receptor, 410 nM.
Turning to `O=C(O)c1ccccc1NCc1cc([N+](=O)[O-])cc2nc(O)c(O)nc12`, the half-inhibitory concentration (IC50) (in assay [1]; on Glutamate NMDA receptor) was 50 nM each time.
In assay [1], `O=[N+]([O-])c1cc(CNc2cnccn2)c2nc(O)c(O)nc2c1` returned an IC50 of 220 nM. Also, in assay [2], the inhibition is 59%.

The term IC50 denotes the concentration that inhibits the measured activity by half. By inhibition is commonly meant how much of the control response was suppressed.

For the origin of these results see ChEMBL document CHEMBL1130977, “5-Aminomethylquinoxaline-2,3-diones. Part II: N-aryl derivatives as novel NMDA/glycine and AMPA antagonists” (Bioorg Med Chem Lett, 1998).
